Laboratory results: paper PMC11811597, “Phenomics‐Based Discovery of Novel Orthosteric Choline Kinase Inhibitors” (Angewandte Chemie (International Ed. in English), 2025)
Read-outs that look alike come from different tables or passages of the source.

Tests used:
[1] = tested on: MCF7, MDA‐MB‐231, HEK293, HepG2, U2OS and K562 cells; experiment: 72 h cell viability assay (Cell Titer-Glo); assay type: cell-based, human; details: 0-50 μM
Excerpt: We compared morphological fingerprints of multiple parameters to assess overall biological similarity (Biol. Sim.) (Figure 1B).
A-366 and UNC0638 were purchased from Tocris. ARIAD and V-11-07-11 were purchased from Wuxi Apptec. UNC0737 and UNC0965 were synthesised as previously described.[1] Hemicholinium-3 and pyruvate kinase/lactic dehydrogenase enzymes were purchased from Sigma Aldrich. Aqueous and organic solvents were MS-grade and acquired by Sigma Aldrich unless stated otherwise.
MDA-MB-231, MCF7 and HEK293 cells were cultured in DMEM (Gibco, #11965092) supplemented with 10% FBS. K562 were cultured in IMDM (Gibco, #12440053) supplemented with 10% FBS. HepG2 were cultured in MEM (Gibco, #11095080) supplemented with 10 % FBS. […]
cultured in McCoy’s 5A (Sigma, M8403) supplemented with 10 % FBS and 1x GlutaMAX (Gibco, #35050061). Cells were maintained at 37 °C in a humidified 5% CO2 atmosphere. Peripheral blood mononuclear cells (PBMC) were isolated from healthy blood donors by density centrifugation.
MDA-MB-231, MCF7 or HEK293 cells (7.5 × 10^4 cells/mL) were each plated into x1 white 384-well polystyrene plate (Greiner Bio-One Ltd). A-366, […] and UNC0737 were directly added to each well of the cell line plates, at final concentrations 0-50 μM and incubated for 72 h at 37 °C/ 5% CO2.
Cell Titer-Glo® reagent was added to each well and total luminescence readings were performed within 15 min using the PHERAstar FSX (BMG Labtech). The cell viability results were normalised to the DMSO control and plotted using the sigmoidal dose-response (variable slope) equation in […]
Chemical Proteomics Drug Pulldown
For lysate generation MCF7 cells were grown until approximately 80% confluency before being pelleted and washed with PBS. […]
MDA-MB-231, […], HepG2, U2OS and K562 cells following treatment with A-366, UNC0638 and UNC0737 after 72 h measured by Cell Titer Glo assay (n=3). […]

CHKA [2] = molecular target: T1, CHKA (Homo sapiens, UniProt P35790); experiment: Isothermal calorimetry (ITC); assay type: binding; set-up: host or cells: E. coli BL21(DE3)
Description: mM NaCl, 5% glycerol, 500 mM imidazole, 0.5% TCEP, pH 7.5), the eluent was concentrated, and further purified by size exclusion chromatography using a HiLoad 16/600 Superdex S200 column (Cytiva) pre-equilibrated in Buffer C (20 mM HEPES, 150 mM NaCl, pH 7.5). The resulting protein purity was assessed by SDS-PAGE, and protein identity was confirmed by tryptic digest analysis. Protein concentration was determined to be 35.5 mg/mL, and was calculated using a theoretical molar extinction coefficient of 58830 M-1cm-1 as determined by ProtParam.[5]
Isothermal Calorimetry (ITC)
ITC experiments were performed in a buffer containing 20 mM HEPES pH 7.5 and 200 mM NaCl, using an VP-ITC microcalorimeter (MicroCal) at 15 °C. The protein concentration was 200 µM and compounds were tested at 20 µM. The titrations were conducted using an initial injection of 4 μL followed by further 29 injections of 8 μL each. Thermodynamic parameters were calculated using ΔG = ΔH − TΔS = −RT ln KB, where ΔG, ΔH, and ΔS are the changes in free energy, enthalpy, and entropy of binding, respectively. Single binding models were employed to fit the data. […]
Target sequence in this assay (P35790 75-457 limits assumed): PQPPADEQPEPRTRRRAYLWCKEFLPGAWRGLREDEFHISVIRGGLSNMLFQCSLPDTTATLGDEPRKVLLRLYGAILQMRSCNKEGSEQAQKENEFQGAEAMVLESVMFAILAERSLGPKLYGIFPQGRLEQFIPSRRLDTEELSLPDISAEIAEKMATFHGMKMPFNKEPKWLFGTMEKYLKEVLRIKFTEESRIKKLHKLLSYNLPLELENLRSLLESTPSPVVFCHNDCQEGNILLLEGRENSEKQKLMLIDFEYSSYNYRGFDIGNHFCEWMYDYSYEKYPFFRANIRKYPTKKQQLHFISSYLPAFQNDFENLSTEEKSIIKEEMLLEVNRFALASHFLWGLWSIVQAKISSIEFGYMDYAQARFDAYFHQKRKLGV

CHKA [3] = molecular target: T1, CHKA; experiment: PISA thermal profiling, intact HepG2 cells; assay type: cell-based; set-up: endogenous in cells; host or cells: intact HepG2 cells; details: 30 µM; for effect_CETSA_Intact (PISA amplitude), CHKA: 60 min, n=3
Description: To further corroborate our findings, we next performed the proteome integral solubility alteration (PISA) assay in HepG2 human hepatoma cells that express high levels of CHKA. Conceptually building on the cellular thermal shift assay (CETSA) with mass spectrometry based detection,[19, 20] PISA leverages compound‐mediated stabilisation of target proteins without the need of chemical modification in intact cells. […]
Experiments were performed as described earlier with few modifications. In short, 3 replicates of intact HepG2 cells were treated with 30 µM UNC0638, […] or corresponding volume of DMSO in medium-free experimental buffer for 60 min at 37 °C with end-over-end rotation. For lysates: Washed K562 cells were resuspended in medium-free experimental buffer and lysed by three freeze-thaw cycles. Lysate was centrifugated 20,000 × g for 20 min at 4 °C to remove cell debris. The cleared lysate was treated with 30 µM UNC0638, UNC0373 or corresponding volume of DMSO for 15 min at RT with end-over-end rotation. Each treated cell suspension or lysate was divided into 12 aliquots and subjected to a 12-step heat gradient from 44 °C to 64 °C. All the temperature points were pooled together to form […] individual samples. Soluble fraction was separated from precipitated proteins […]
by centrifugation at 30,000 × g for 20 min at 4 °C. The soluble fractions were collected to fresh tubes and further processed to be analysed with mass spectrometry. Sample handling, TMT labelling, LC-MS/MS analysis, protein identification and data analysis was performed as described earlier.[12] […]
Biosciences) was used for data analysis. The blood was obtained under an approved ethical review from the Regional Ethical Review Board in Stockholm, approval number 2015/2001-31/2. The donors gave their consent to participate after written and oral information.
Target sequence in this assay (P35790 whole entry): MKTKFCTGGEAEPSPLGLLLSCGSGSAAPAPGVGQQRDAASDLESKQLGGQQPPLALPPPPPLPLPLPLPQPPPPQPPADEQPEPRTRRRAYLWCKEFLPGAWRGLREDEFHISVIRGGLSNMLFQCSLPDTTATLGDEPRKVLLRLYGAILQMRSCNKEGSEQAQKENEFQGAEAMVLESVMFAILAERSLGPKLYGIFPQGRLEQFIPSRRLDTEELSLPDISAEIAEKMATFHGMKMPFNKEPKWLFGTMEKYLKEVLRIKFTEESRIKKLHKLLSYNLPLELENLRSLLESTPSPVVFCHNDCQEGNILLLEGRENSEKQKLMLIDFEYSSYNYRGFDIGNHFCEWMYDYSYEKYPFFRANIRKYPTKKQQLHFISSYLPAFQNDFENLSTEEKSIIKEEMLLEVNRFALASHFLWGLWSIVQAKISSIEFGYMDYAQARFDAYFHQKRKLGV

## COc1cc2c(NC3CCN(C(C)C)CC3)nc(C3CCCCC3)nc2cc1OCCCN1CCCC1 [UNC0638]
[1]
  effect on cell viability: antiproliferative effects
CHKA [2]; ITC, 15 °C, recombinant human CHKA, read-out: KD
  Kd: 270 nM
CHKA [3]
  stabilisation of CHKA (PISA): significant stabilisation of CHKA
  effect_CETSA_Intact (PISA amplitude), CHKA: 0.57

## COc1cc2c(N(C)C3CCN(C(C)C)CC3)nc(C3CCCCC3)nc2cc1OCCCN1CCCC1 [UNC0737]
[1]
  effect on cell viability: antiproliferative effects
CHKA [2]
  Kd: 59.3 nM
CHKA [3]
  stabilisation of CHKA (PISA): significant stabilisation of CHKA
  effect_CETSA_Intact (PISA amplitude), CHKA: 0.619
